# Assay results: patent US11292809B2, “Crystals of glycyrrhizic acid derivatives, crystalline compositions, pharmaceutical compositions and uses thereof” (CHIA TAI TIANQING PHARMACEUTICAL GROUP CO., LTD., priority 2018, dated 2022)
# What was measured:
# [1] = Color and clarity of solution test; format: physicochemical; settings: 0.5 g dissolved in 10 ml dilute ammonia solution (1→100)
# Method: “Color and clarity of solution test” is particularly important, and also a required inspection item for active ingredients used in preparations for injection. Weigh 0.5 g of the crystalline form A obtained in example 5, dissolve it with 10 ml dilute ammonia solution (1→100), and the solution may be clear and colorless. If the solution is colored, compare it with the yellow 2 #standard color solution (Method 1, General Principles 0901, the Chinese Pharmacopoeia), and the former should not be intensely colored than the latter. If the solution is turbid, compare it with the turbidity 0.5 #standard solution (Method 1, General Principles 0902, the Chinese Pharmacopoeia), and the former should not be more intensely turbid than the latter.
# [2] = Measurement of particle size and specific surface area; format: physicochemical
# Source text: For the purpose of this application, “X10” represents the particle diameter corresponding to 10% of the particle size distribution, in other words, cumulative 10% of the particles in all the tested particles are smaller than X10; “X50” represents the particle size corresponding to 50% of the particle size distribution, in other words, cumulative 50% of the particles in all the tested particles are smaller than X50; “X90” represents the particle size corresponding to 90% of the particle size distribution, in other words, cumulative 90% of the particles in all the tested particles are smaller than X90.
# Sv and Sm denote specific surface areas, i.e., total surface area of a material per unit volume (Sv) and total surface area of a material per unit of mass (Sm) respectively.
# Particle size distribution is determined according to the laser method using the instrument below: full-automatic dry-wet laser particle sizer, VIBRI (HELOSBR).
# [3] = tested on: liver-injury animal models induced by different hepatotoxic agents; settings: cited from earlier work
# [4] = particle size distribution, laser method
# [5] = liver-injury animal models induced by different hepatotoxic agents
clarity test ([1]; compared with turbidity 0.5# standard solution),color of solution test ([1]; compared with yellow 2# standard color solution),"X10 [2, 4] [μm]","X50 [2, 4] [μm]","X90 [2, 4] [μm]",Sm ([2]; specific surface area per unit of mass) [m^2/g],Sv ([2]; specific surface area per unit volume) [m^2/cm^3],SMILES,"hepatocyte degeneration and necrosis and inflammatory cell infiltration [3, 5]","hepatocyte regeneration [3, 5]","serum transaminase elevation in animals [3, 5]",effect against liver injury compared with natural glycyrrhizic acids ([3]; versus natural glycyrrhizic acids)
"The solution is clear, and less","The solution is colorless, and less",6.19,42.18,91.80,0.64,0.44,"CC1(C)[C@@H](O[C@H]2O[C@H](C(=O)[O-])[C@@H](O)[C@H](O)[C@H]2O[C@@H]2O[C@H](C(=O)[O-])[C@@H](O)[C@H](O)[C@H]2O)CC[C@]2(C)[C@H]3C(=O)C=C4[C@H]5C[C@@](C)(C(=O)O)CC[C@]5(C)CC[C@@]4(C)[C@]3(C)CC[C@@H]12.[Mg+2] [crystalline form A, magnesium isoglycyrrhizinate]",–,–,–,–
–,–,–,–,–,–,–,CC1(C)[C@@H](O[C@H]2O[C@H](C(=O)[O-])[C@@H](O)[C@H](O)[C@H]2O[C@@H]2O[C@H](C(=O)[O-])[C@@H](O)[C@H](O)[C@H]2O)CC[C@]2(C)[C@H]3C(=O)C=C4[C@H]5C[C@@](C)(C(=O)O)CC[C@]5(C)CC[C@@]4(C)[C@]3(C)CC[C@@H]12.[Mg+2] [magnesium isoglycyrrhizinate],alleviate,promote,significantly inhibit,obviously superior
